Experimental data: US20250296922A1, “POLYSUBSTITUTED PYRROLIDINE DERIVATIVE, PREPARATION METHOD THEREFOR AND USE THEREOF” (SHANGHAI WENNAI THERAPEUTICS CO LTD, priority 2023, published 2025)

Experiment: Stability of the compound in liver microsomes (rat)
Type: in vitro ADME, SD rat
Settings: 1 μM compound, 0.5 mg protein/mL
Method: 2.1.1. working solution: 5 μL of test or control compound stock solution (10 mM DMSO solution) was diluted with 495 μL of acetonitrile (ACN) to obtain an intermediate stock solution (100 μM, 99% ACN).
2.2.2 Preparation procedure: An appropriate amount of NADPH powder was weighed and diluted with 10 mM MgCl2 buffer (working solution concentration: 10 mM; final reaction system concentration: 1 mM).
2.3.2 Preparation procedure: The appropriate concentration of liver microsomal working solution was prepared in 100 mM potassium phosphate buffer;
Acetonitrile (ACN) solution at 4° C. containing 200 ng/mL of Tolbutamide and 200 ng/ml of labetalol as internal standards 2.5. Operation steps:
2.5.2. Diluting liver microsomes with 100 mM potassium phosphate buffer to a concentration of 0.56 mg/mL.
2.5.3. Transferring 445 μL of liver microsomal working solution (0.56 mg/mL) to pre-heated incubation plates T60 and NCF60, and then pre-heating the incubation plates T60 and NCF60 for 10 minutes at 37° C. with shaking. Transferring 54 μL of liver microsomes to each well of the blank plate, adding 6 μL of NAPDH coenzyme solution to the blank plate, and finally transferring 180 μL of termination solution to the blank plate.
2.5.4 Adding 5 μL of compound working solution (100 μM) to the incubation plates T60 and NCF60 containing liver microsomes and mixing three times.
2.5.5. Adding 50 μL of buffer to the NCF60 plate and mixing three times, starting the timer and incubating at 37° C. for 60 min with the plate shaking.
2.5.6. Adding 180 μL of quenching solution and 6 μL of NAPDH coenzyme working solution sequentially to quenching plate TO, making sure that the plate was cold to prevent volatilization of the incubation solution.
2.5.7. For plate T60, mixing well three times and immediately transferring 54 μL of mixing solution (0-min time point) to quenching plate TO, then adding 44 μL of NAPDH coenzyme working solution to incubation plate T60. Starting the timer:
2.5.8. At the 5, 15, 30, 45 and 60 minute time points, adding 180 μL of quenching solution to the quenching plate and transferring 60 μL of reaction solution from the T60 plate to the quenching plate at each time point.
2.5.9. For NCF60 plates, mixing well and transferring 60 μL of reaction solution from the NCF60 incubating solution to a quenching plate containing 180 μL of quenching solution at 60th minute.
2.5.10. All plates were mixed on a shaker for 10 min and then centrifuged at 4000 rpm at 4° C. for 20 min.
2.5.11. Transferring 80 μL of supernatant to 240 μL of HPLC water and mixing on a
2.6.1. Calculating t1/2 and Clint (mic) values based on first-order elimination kinetics: […]

With `COc1c([C@H]2[C@H](C(=O)Nc3ccnc(C(N)=O)c3)O[C@@](C)(C(F)(F)F)[C@H]2C)ccc(F)c1F` [VX-548, reference compound] the half-life at 1 μM (Sprague-Dawley, rat, liver microsomes, 37° C., read-out: Rat liver microsomes T½) was 16.7 min and the “Rat liver microsomes Residual (T = 60 min)” value (T = 60 min) was 8.5%.
